# Where two headings read alike, the source gives them in different places.
# Columns and labels:
# Histamine H3 = molecular target: T1, Histamine H3 (Cavia porcellus, UniProt Q9JI35); assay: Histamine H3 radioligand binding assay, [3H]-R-α-methylhistamine, guinea pig ileum longitudinal muscle myenteric plexus membranes
# T1 construct: ileum longitudinal muscle myenteric plexus membranes; from tissue; host or cells: ileum longitudinal muscle myenteric plexus membranes of male Dunkin Hartley guinea pigs
# T1 sequence (Q9JI35 whole entry): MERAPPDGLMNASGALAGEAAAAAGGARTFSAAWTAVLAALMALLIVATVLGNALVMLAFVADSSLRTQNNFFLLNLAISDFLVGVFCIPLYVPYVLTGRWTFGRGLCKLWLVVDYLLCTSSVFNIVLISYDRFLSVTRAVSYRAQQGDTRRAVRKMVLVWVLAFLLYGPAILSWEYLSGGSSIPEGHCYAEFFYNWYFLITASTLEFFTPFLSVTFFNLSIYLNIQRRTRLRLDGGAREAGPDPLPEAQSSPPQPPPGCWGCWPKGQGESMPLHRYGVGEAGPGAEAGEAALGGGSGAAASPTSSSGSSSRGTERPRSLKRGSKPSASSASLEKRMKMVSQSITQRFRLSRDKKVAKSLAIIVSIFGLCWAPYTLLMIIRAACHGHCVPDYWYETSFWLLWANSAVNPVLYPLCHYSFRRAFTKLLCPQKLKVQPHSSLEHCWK
# Description: Histamine H3 Radioligand Binding Assay
# Male Dunkin Hartley guinea pigs (200-300 g) were used. The small intestine was rapidly removed (cut ~5 cm from caecum and 5 cm from stomach) and placed in ice-cold 20 mM Hepes-NaOH buffer (pH7.4 at 21±3° C.). The tissue was cut into ~10 cm segments, flushed through with ice-cold 20 mM Hepes-NaOH buffer and placed in a beaker containing fresh buffer at 4° C. 10 cm segments of ileum were threaded onto a glass pipette and the longitudinal muscle myenteric plexus was peeled away from the circular muscle using damp cotton-wool. Longitudinal muscle myenteric plexus was immediately placed in ice-cold Viaspan® solution (~100 ml for tissue from 3 guinea pigs) and placed in the refrigerator for 24 hours.
# Pre-soaked tissue was weighed and minced with scissors. The tissue was then homogenised in Viaspan® using a polytron (Kinematica AG; PT-DA 3020/2TS, 3×~1-2 s). 50 ml of 500 mM Tris HCl (pH6.9 at 21±3° C.) was added to the tissue and the mixture centrifuged at 39,800×g for 12 min at 4° C. The supernatant was discarded and rehomogenised in 100 ml ice-cold 20 mM Hepes-NaOH buffer (pH7.4 at 21±3° C.) using a teflon-in-glass homogeniser (setting 10; 3×). The homogenate was recentrifuged at 39,800×g and the pellet resuspended in 20 mM Hepes-NaOH buffer (pH7.4 at 21±3° C.), to a tissue concentration of 50 mg.ml^-1, using a polytron (Brinkman, PT10, 3×~1 s).
# Guinea pig ileum longitudinal muscle myenteric plexus membranes (400 μl) were incubated for 165 min at 21±3° C. in a final volume of 500 μl with 20 mM Hepes-NaOH buffer containing [^3 H]-R-α-methylhistamine (50 μl; 3 nM) and competing compound. Total and non-specific binding of [^3 H]-R-α-methylhistamine were defined using 50 μl of buffer and 50 μl of 10 μM thioperamide, respectively. The assay was terminated by rapid filtration through Whatman GF/B filters, presoaked (2 hr) in 0. 1% polyethyleneimine,using a Brandell Cell Harvester. The filters were washed (3×3 ml) with ice-cold 50 mM Tris-HCl (pH6.9 at 21±3° C.), transferred into scintillation vials, 5 ml liquid scintillation cocktail was added and after 4 hours the bound radioactivity was determined by counting (4 min) in a Beckman liquid scintillation counter.
# Data are analysed using GraphPad prism and the general equation for a competition curve with variable Hill slope (nH).
# Y=Non-specific binding+(Total binding-Non-specific binding)/1+10^((logIC.sbsp.50^-X).n.sbsp.H^)
# X is the log concentration of competing compound, Y is the binding obtained at each concentration of X, pIC50 is the concentration of the competitor required to compete for half of the specific binding.
# The IC50 is converted to the K1 using the Cheng Prusoff equation, […]
# IC50 is the concentration of competitor required to compete for half the specific binding, L is the radioligand concentration used, KD is the equilibrium dissociation constant for the radioligand determined by saturation experiments.
# (§1) Typical variance in the functional assay is ±0.15 log units. Typical variance in the binding assay is ±0.12 log units. This means that if the discrepancy between the two assays is greater than about 0.5 log units, then this difference on average is significant.
# H3 receptor = molecular target: T2, H3 receptor (Cavia porcellus, UniProt Q9JI35); assay: H3 receptor bioassay (functional assay), guinea pig ileal longitudinal muscle myenteric plexus; format: cell-based; details: antagonism of R-(α)-methylhistamine E/[A] curve, Schild's methods, electrically stimulated guinea pig ileum, variance ±0.15 log units; for Kb: read-out: pKB (functional assay) (converted)
# T2 construct: the longitudinal muscle layer and adhering myenteric plexus was teased away; from tissue; host or cells: ileal longitudinal muscle with adhering myenteric plexus of male Dunkin-Hartley guinea pigs
# T2 sequence (Q9JI35 whole entry): as above
# Description: The biological activity of the compounds of the examples was measured using the ileal longitudinal muscle, myenteric plexus assay described by Paton and Aboo Zar (J. Physiol. 194, 13-33 (1968)). Male Dunkin-Hartley guinea pigs (250-300 g) were employed. Briefly, a 50 cm portion of ileum proximal to the caecum was removed, after discarding the terminal 20 cm. Ileal segments (3 cm) were cleaned by passing Krebs-Henseleit buffer containing 3 μM mepyramine gently through the ileum using a Pasteur pipette (size: 13.8 cm length, 0.65 cm diameter). To avoid unnecessary damage to the tissue, Krebs-Henseleit buffer was passed through the ileal segment, while it was lying horizontally on a petri dish. Therefore, the ileum was not over-distended and the buffer flowed through with ease. Each segment was then passed over a Pasteur pipette and the longitudinal muscle layer and adhering myenteric plexus was teased away using moist cotton wool, by stroking tangentially away from the mesenteric attachment. The tissues were suspended in 20 ml organ baths containing Krebs-Henseleit buffer at 37±1° C. and gassed with […]. The tissues were ligated to two parallel stainless steel wires, situated between two platinum electrodes (0.76 cm length, 0.06 cm diameter). All measurements were recorded isometrically (Grass FTO3 transducer). Following an initial loading tension of 1 g, the tissues were stimulated with electrical pulses at a frequency of 0.1 Hz and a pulse duration of 0.5msec, as described by Kosterlitz & Watt (1968). Initially, the tissues were stimulated at supramaximal (1.3 fold times maximal) voltage for a period of 30 min and then the tissues were washed and re-stimulated. A "sighter dose" of the selective histamine H3 -receptor agonist, R-(α)-methylhistamine(0.3 μM) (Arrang et al., 1987), was administered. Upon generation of response, the "sighter dose" was removed from the tissues by "washout" (6 washes over 60 min) and during this period the electrical stimulation was switched off. The tissues were then re-stimulated and allowed to stabilise prior to the addition of drug treatments, which were allocated on a randomised block basis to the organ baths. Following the incubation period, a single cumulative E/[A] curve was obtained. The experimental E/[A] curve data was expressed as the percentage inhibition of the peak height of electrically-stimulated contraction. Antagonist affinity values were calculated from the degree of rightward shift of the R-(α)-methylhistamine E/[A] curves using Schild's methods (Arunlatcshama & Schild, 1949).
# as §1
# [1] = 3 nM [3H]-R-α-methylhistamine, 165 min, 21±3° C., Cheng Prusoff, variance ±0.12 log units, read-out: pK1 (binding assay) (converted)
# [2] = 3 nM [3H]-R-α-methylhistamine, 165 min, 21±3° C., Cheng Prusoff, variance ±0.12 log units
Ki (Histamine H3; [1]) [nM],Kb (H3 receptor) [nM],pK1 (binding assay) (Histamine H3; [2]),pKB (functional assay) (H3 receptor),Structure (SMILES),Ki (Histamine H3) [nM]
16.6,18.6,–,–,"O=S(=O)(NCCCCc1c[nH]cn1)NCc1ccc2ccccc2c1 [Example 50, N-[4-(4(5)-Imidazoyl)butyl]-N'-2-naphthylmethyl-sulfamide]",–
–,1620,7.07,–,"O=S(=O)(NCCCCCCCCCCc1c[nH]cn1)c1ccc2ccccc2c1 [Example 31, N-[10-(4(5)-Imidazoyl)decyl]-2-naphthalenesulfonamide]",–
56.2,380,–,–,"O=S(=O)(NCCCCc1c[nH]cn1)NCc1ccccc1Cl [Example 43, N-[4-(4(5)-Imidazoyl)butyl]-N'-(2-chlorophenyl)methyl-sulfamide]",–
15.8,42.7,–,–,"O=S(=O)(NCCCCCCCCc1c[nH]cn1)NCc1ccc(Cl)cc1 [Example 39, N-[8-(4(5)-Imidazoyl)octyl]-N'-(4-chlorophenyl)methyl-sulfamide]",–
6.61,4.07,–,–,"O=S(=O)(NCCCCCc1c[nH]cn1)NCc1ccc(C(F)(F)F)cc1 [Example 63, N-[5-(4(5)-Imidazoyl)pentyl]-N'-(4-(trifluoromethyl)phenyl)methyl-sulfamide]",–
–,4.79,8.12,–,"O=S(=O)(NCCCCc1c[nH]cn1)NCc1ccc(-c2ccccc2)cc1 [Example 49, N-[4-(4(5)-Imidazoyl)butyl]-N'-(4-biphenyl)methyl-sulfamide]",–
5.75,7.41,–,–,"O=S(=O)(NCCCCCCc1c[nH]cn1)NCc1ccc(-c2ccccc2)cc1 [Example 62, N-[6-(4(5)-Imidazoyl)hexyl]-N'-(4biphenyl)methyl-sulfamide]",–
–,240,6.97,–,"O=S(=O)(NCCCCCCCCc1c[nH]cn1)c1ccc2ccccc2c1 [Example 30, N-[8-(4(5)-Imidazoyl)octyl]-2-naphthalenesulfonamide]",–
–,2.09,8.56,–,"O=S(=O)(NCCCCc1c[nH]cn1)NCc1ccc(Cl)cc1 [Example 13, N-[4-(4(5)-Imidazoyl)butyl]-N'-(4-chlorophenyl)methyl-sulfamide]",–
138,447,–,–,"O=S(=O)(NCCCc1c[nH]cn1)NCCc1ccc(Cl)cc1 [Example 56, N-[3-(4(5)-Imidazoyl)propyl]-N'-2-(4-chlorophenyl)ethyl-sulfamide]",–
–,1.7,8.36,–,"O=S(=O)(NCCCCCCc1c[nH]cn1)NCc1ccc(Cl)cc1 [Example 15, N-[6-(4(5)-Imidazoyl)hexyl]-N'-(4-chlorophenyl)methyl-sulfamide]",–
1120,> 10000,–,–,"O=S(=O)(Cc1ccc2ccccc2c1)NCCc1c[nH]cn1 [Example 19, N-[2-(4(5)-Imidazoyl)ethyl]-2-naphthylmethanesulfonamide]",–
–,20,7.84,–,"O=S(=O)(NCCCCc1c[nH]cn1)NCc1ccc(F)cc1 [Example 46, N-[4-(4(5)-Imidazoyl)butyl]-N'-(4-fluorophenyl)methyl-sulfamide]",–
–,1350,7.55,–,"O=S(=O)(CCC1CCCCC1)NCCc1c[nH]cn1 [Example 23, N-[2-(4(5)-Imidazoyl)ethyl]-2-cyclohexylethanesulfonamide]",–
7.76,6.03,–,–,O=S(=O)(CCc1ccc(Cl)cc1)NCCCCc1c[nH]cn1 [Example 55],–
4.37,1.05,–,–,O=S(=O)(NCCCCCCc1c[nH]cn1)NCc1ccc(Br)cc1 [Example 58],–
16.2,13.8,–,–,"O=S(=O)(NCCCCc1c[nH]cn1)NCc1cccc(Cl)c1 [Example 42, N-[4-(4(5)-Imidazoyl)butyl]-N'-(3-chlorophenyl)methyl-sulfamide]",–
10.5,47.9,–,–,"O=S(=O)(NCCCCCc1c[nH]cn1)NCc1ccc(F)cc1 [Example 65, N-[5-(4(5)-Imidazoyl)pentyl]-N'-(4-fluorophenyl)methyl-sulfamide]",–
1.86,1.2,–,–,"CN(CCCCc1c[nH]cn1)S(=O)(=O)NCc1ccc(Cl)cc1 [Example 69, N'-(4-Chlorophenyl)methyl-N-[4-(4(5)-imidazoyl)butyl]-N-methyl-sulfamide]",–
4.57,14.5,–,–,"O=S(=O)(NCCCCCCc1c[nH]cn1)NCc1ccc(C(F)(F)F)cc1 [Example 60, N-[6-(4(5)-Imidazoyl)hexyl]-N'-(4-(trifluoromethyl)phenyl)methyl-sulfamide]",–
–,46.8,7.94,–,"O=S(=O)(Cc1ccc(Cl)cc1)NCCCCCc1c[nH]cn1 [Example 9, N-[5-(4(5)-Imidazoyl)pentyl]-(4-chlorophenyl)methanesulfonamide]",–
–,77.6,7.49,–,O=S(=O)(NCCCCCCc1c[nH]cn1)c1ccc2ccccc2c1 [Example 8],–
–,–,8.46,8.62,"O=S(=O)(NCCCCCCc1c[nH]cn1)NCc1ccc(I)cc1 [Example 61, N-[6-(4(5)-Imidazoyl)hexyl]-N'-(4-iodophenyl)methyl-sulfamide]",–
11.2,15.8,–,–,CN(Cc1ccc(Cl)cc1)S(=O)(=O)NCCCCc1c[nH]cn1 [Example 70],–
8.32,3.72,–,–,"O=S(=O)(NCCCCCCc1c[nH]cn1)NCc1ccc(F)cc1 [Example 59, N-[6-(4(5)-Imidazoyl)hexyl]-N'-(4-fluorophenyl)methyl-sulfamide]",–

Structure (SMILES),Ki (Histamine H3; [1]) [nM],Kb (H3 receptor) [nM],pK1 (binding assay) (Histamine H3; [2]),pKB (functional assay) (H3 receptor),Ki (Histamine H3) [nM]
"O=S(=O)(/C=C/c1ccccc1)NCCc1c[nH]cn1 [Example 20, (E)-N-[2-(4(5)-Imidazoyl)ethyl]-2-phenylethenesulfonamide]",–,> 3160,7.26,–,–
"O=S(=O)(Cc1ccc(Cl)cc1)NCCCCc1c[nH]cn1 [Example 10, N-[4-(4(5)-Imidazoyl)butyl]-(4-chlorophenyl)methanesulfonamide]",–,2.4,8.53,–,–
"O=S(=O)(CCc1ccc(Cl)cc1)NCCCc1c[nH]cn1 [Example 53, N-[3-(4(5)-Imidazoyl)propyl]-2-(4-chlorophenyl)ethanesulfonamide]",–,182,–,–,56.2
